In article PMC6135396, “Repurposing antimalarial aminoquinolines and related compounds for treatment of retinal neovascularization” (PLoS ONE, 2018):

What was measured:
[1] = test system: human retinal microvascular endothelial cells (HRECs); experiment: In vitro HREC tube formation assay; type: cell-based; details: for Stimulation of HREC endothelial tube formation: factor added alone
Description: In vitro tube formation assays were carried out as previously described. Briefly, near confluent microvascular endothelial cells were pretreated with VEGF (100 ng/ml) for 2 h and then treated for 24 h with test compounds at serial concentrations, as indicated. Cells without VEGF treatment or with VEGF only were used as control. The cells were then detached and plated sparsely (2.5 ×10^4/well) on 24-well plates coated with 12.5% (v/v) Matrigel (BD, Franklin Lakes, NJ) and left overnight. The medium was then aspirated and 250 μl/well of 12.5% Matrigel was overlaid on the cells for 2 h to allow the polymerization of Matrigel, followed by addition of 500 μl/well of basal medium MCD131 with 10% fetal calf serum (FCS) for 24 h. The following day, the culture plates were observed under a phase contrast microscope and photographed at random in five fields (×10). The tubule length (mm/mm^2) per microscope field was quantified.

[2] = Cytotoxicity, ATP-Lite, Fa2N-4 immortalized human hepatocytes; type: cell-based; details: ATP-lite assay, Fa2-N4 cells
Description: (§1) Fa2N-4 immortalized human hepatocytes (Xenotech) or HREC cells were grown to subconfluency in wells of a 96-well plate and exposed to different concentrations of compounds for 24 h after which the cells were washed and the media and compounds replaced. The cells were returned to the incubator for another 24 h. The extent of cell death (cell lysis) was determined by ATP-Lite reagent (Perkin-Elmer).

[3] = target: T1, angiotensin II type 1 (AT1) (Homo sapiens, UniProt P30556); experiment: AT1 β-arrestin recruitment counter assay (CHO-K1-AT1); type: cell-based
T1 construct: β-galactosidase enzyme fragment (enzyme fragment complementation construct); host or cells: CHO-K1 (CHO-K1-AT1, PathHunter)
T1 sequence (P30556 1-359): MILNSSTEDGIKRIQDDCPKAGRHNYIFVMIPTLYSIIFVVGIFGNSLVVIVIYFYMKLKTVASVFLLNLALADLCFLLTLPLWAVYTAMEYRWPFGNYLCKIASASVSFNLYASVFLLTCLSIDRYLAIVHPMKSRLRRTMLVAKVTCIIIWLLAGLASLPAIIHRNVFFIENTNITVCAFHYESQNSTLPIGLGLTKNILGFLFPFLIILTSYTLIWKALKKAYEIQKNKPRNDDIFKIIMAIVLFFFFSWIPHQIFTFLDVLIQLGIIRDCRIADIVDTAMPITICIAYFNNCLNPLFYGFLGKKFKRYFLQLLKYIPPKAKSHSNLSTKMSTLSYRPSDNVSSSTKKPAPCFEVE
Description: (§2) PathHunter™ GPCR Arrestin and cAMP Hunter™ cell lines (DiscoveRx Corp., Fremont, CA) were used to assay G-protein-dependent signaling and β-arrestin recruitment to APJ. CHO-K1 cells stably expressing APJ (CHO-K1-APJ) or AT1 (CHO-K1-AT1) with β-arrestin/β-galactosidase enzyme fragment complementation constructs were maintained in HAM's F-12 medium (Hyclone, Logan, UT) supplemented with 10% FBS, 1X Penicillin-Streptomycin-Glutamine (Invitrogen; Carlsbad, CA), 300 μg/ml hygromycin (EMD Biosciences, San Diego, CA), and 800 μg/ml Geneticin (Cellgro, Manassas, VA). Primary Human Retinal Microvascular Endothelial Cells (HRECs) were purchased from Cell Systems (Kirkland, WA) and maintained in Complete Classic Medium with CultureBoost-R™ (Cell Systems). Parent CHO-K1 cells were obtained from ATCC and maintained in HAM’s F-12 medium supplemented with 10% FBS, and1X Penicillin-Streptomycin-Glutamine (Invitrogen; Carlsbad, CA). All cells were incubated at 37°C (5% CO2, 95% relative humidity) and maintained at less than 70% to 80% confluence (approximately 75,000 cells/cm^2). Cell heterologously expressing APJ or AT1 were not used after 10 passages. HRECs were not used in any experiments after five passages.
(§3) CHO-K1 cells engineered to over-express APJ or AT1, and β-arrestin were removed from flasks using TrypLE Select (1X), no phenol red (Life Technologies, Grand Island, NY), centrifuged, and resuspended in CP2 Reagent (DiscoveRx, Fremont, CA). Cells were counted using a Countess Automated Cell Counter (Invitrogen, Carlsbad, CA) and 5,000 cells/well were plated in a 384-well tissue culture treated microplate (Corning, Corning, NY). All plates were incubated overnight at 37°C, 5% CO2 in a final volume of 25 μl/well. Following incubation, 5 μl of peptides (10-point concentrations) and controls prepared in ligand buffer (1X HBSS, 10 mM HEPES, 0.1% BSA) were added to cells and incubated at 37°C for 1.5 h. Using a Multidrop Combi Reagent Dispenser (Thermo Scientific), 12 μl of Detection Reagent (DiscoveRx) comprised of substrate and co-factors was added to all wells and incubated at room temperature in the dark for 1 h. Chemiluminescent signal was detected on an EnVision Multi-label plate reader (Perkin Elmer) using a counting time of 1 s/well. The robustness of data from each screening plate and run was monitored by Z’ and Signal Window calculation.

APJ [4] = target: T2, APJ (Homo sapiens, UniProt P35414); experiment: APJ cAMP assay (primary, cAMP HitHunter, CHO-K1-APJ cells); type: cell-based; parameters: host or cells: CHO-K1 (CHO-K1-APJ / CHO-k1-AGTRL1)
T2 sequence (P35414 1-380): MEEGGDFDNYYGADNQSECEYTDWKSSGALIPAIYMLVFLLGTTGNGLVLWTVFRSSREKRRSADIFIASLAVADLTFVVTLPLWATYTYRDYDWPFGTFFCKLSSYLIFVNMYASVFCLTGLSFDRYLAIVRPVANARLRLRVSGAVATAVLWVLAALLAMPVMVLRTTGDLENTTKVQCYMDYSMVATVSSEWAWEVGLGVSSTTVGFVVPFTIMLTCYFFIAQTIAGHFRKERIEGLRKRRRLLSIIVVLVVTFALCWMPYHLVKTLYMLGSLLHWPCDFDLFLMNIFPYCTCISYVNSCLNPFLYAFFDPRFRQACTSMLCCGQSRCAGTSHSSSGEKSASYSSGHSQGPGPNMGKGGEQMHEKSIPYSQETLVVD
Description: (§4) To identify small-molecule antagonists of the apelin receptor (APJ) we interrogated the SBP compound file of ~425,000 compounds using CHO-k1-AGTRL1 cells overexpressing human APJ and a competitive immunoassay of intracellular cAMP [59]. The compound file was screened at a concentration of 10 μM. For all 333 plates assayed, the average Z-factor = 0.68 and the average S/B = 8.2, indicating a robust assay performance. […] There were 2550 compounds that met this criterion, representing a hit rate of ~0.6%. […] Included in this hit set was a series of aminoquinolines, exemplified by compound 1 (Fig 1B). […] As part of an initial hit-validation strategy, these compounds and three other commercially available analogs were purchased for further testing. The purity and identify of all compounds were confirmed by NMR and LC-MS, and they were subsequently retested in a battery of cell-based assays of APJ function and counter screens. […] (Fig 1D).
as §2
(§5) All reagents unless otherwise specified are components of the cAMP HitHunter (DiscoveRx) kit. Ligand Buffer + 60 μM Forskolin (Cayman Chemical, Ann Arbor, MI) was made fresh on the day of the experiment and used for the dilution of positive and negative controls as well as all peptides. CHO-K1-APJ cells were dispensed into a 1536-well tissue culture microplate (Corning, Corning, NY) using a Multidrop at a seeding density of 1,000 cells/well and returned to the incubator. The next day, the cell culture media was removed and replaced with 15 μl/well of assay buffer (1X HBSS, 10 mM HEPES) containing anti-cAMP antibody (DiscoveRx). […] Plates were incubated at room temperature in the dark for 3 hours prior to chemiluminescence detection on an EnVision (Perkin Elmer) using a counting time of 1 s/well.

APJ [5] = target: T2, APJ; experiment: APJ β-arrestin recruitment assay (PathHunter, CHO-K1-APJ); type: cell-based; parameters: β-galactosidase enzyme fragment (enzyme fragment complementation construct); host or cells: CHO-K1 (CHO-K1-APJ, PathHunter); details: for IC50: secondary assay, Ap13-mediated β-arrestin recruitment
Description: as §2, §3

parental CHO-K1 cells = experiment: Parental cAMP counter assay (cells lacking APJ); type: cell-based; details: Cricetulus griseus
Description: as §4, §2, §5

HRECs [6] = experiment: Cytotoxicity, ATP-Lite, HRECs; type: cell-based; details: tested up to 100 μM
Description: as §1

HRECs [7] = details: VEGF 100 ng/mL, Ap13 10 nM
Description: Migration was determined by the QCM™ chemotaxis 5 μm 96-well cell migration assay (Chemicon International, Inc.) as per the manufacture’s protocol. […] After 16 h, cells that migrated to the basal side of the chamber insert membrane were detached, lysed and detected using CyQuant GR™ dye. Migration is expressed as percent increase in migrated cells compared to untreated cells.

HRECs [8] = details: VEGF 100 ng/mL, Ap13 10 nM; remark: listed apart in the source
Description: The proliferation of HRECs was monitored by the crystal violet assay as described in our previous publication. […] After washing three times with PBS, the plates were air-dried and the remaining stain was dissolved in, 10% acetic acid and absorbance measured with a microplate reader at 540 nm.

[9] = Fa2N-4 immortalized human hepatocytes

Compound	IC50 [3] [µM]	IC50 (APJ [4]) [µM]	IC50 (APJ [5]) [µM]	Antagonism of Ap13-mediated recruitment of β-arrestin (APJ [5])	IC50 (parental CHO-K1 cells) [µM]	further results
CSCC[C@H](NC(=O)[C@@H]1CCCN1C(=O)CNC(=O)[C@H](CCCCN)NC(=O)[C@H](Cc1c[nH]cn1)NC(=O)[C@H](CO)NC(=O)[C@H](CC(C)C)NC(=O)[C@H](CCCNC(=N)N)NC(=O)[C@@H]1CCCN1C(=O)[C@H](CCCNC(=N)N)NC(=O)[C@@H](N)CCC(N)=O)C(=O)N1CCC[C@H]1C(=O)N[C@@H](Cc1ccccc1)C(=O)O [Ap13, apelin-13]	–	–	–	–	–	Stimulation of HREC endothelial tube formation [1]: stimulated the formation of endothelial tubes
CCNCc1cc(Nc2ccnc3cc(Cl)ccc23)ccc1O [DEAQ, desethylamodiaquine]	–	–	–	–	–	APJ antagonism in the APJ cAMP assay (APJ [4]): effective APJ antagonist equipotent to the parent AQ
O=C(Oc1coc(CSc2ncccn2)cc1=O)c1ccc([N+](=O)[O-])cc1 [ML221, 4-oxo-6-((pyrimidin-2-ylthio)methyl)-4H-pyran-3-yl 4-nitrobenzoate]	–	–	–	–	–	Cytotoxicity to HRECs (HRECs [6]): Neither ML221 nor AQ were significantly toxic; Effect on Ap13-dependent increase in HREC tube formation ([1]; Ap13-induced, concentration-dependent): blocked Ap13-dependent increases in tube formation; Effect on VEGF-induced HREC tube formation ([1]; VEGF 100 ng/mL, absence of exogenous Ap13): A similar effect was observed
VEGF	–	–	–	–	–	Effect on HREC migration (HRECs [7]): stimulated HREC proliferation and migration; Effect on HREC proliferation (HRECs [8]): stimulated HREC proliferation and migration; Stimulation of HREC endothelial tube formation [1]: stimulated the formation of endothelial tubes

Now from value to compound, other results behind:

IC50 [3] [µM]	IC50 (APJ [4]) [µM]	IC50 (APJ [5]) [µM]	Compound	Antagonism of Ap13-mediated recruitment of β-arrestin (APJ [5])	IC50 (parental CHO-K1 cells) [µM]	further results
> 40	0.556 ± 0.105	> 99	NC(=O)c1ccc(Nc2ccnc3cc(Cl)ccc23)cc1 [Compound 1, 4-((7-chloroquinolin-4-yl)amino)benzamide]	neither AQ nor 1, 3, 4, 5, or 6 antagonized	> 99	IC50 at 48 h [2, 9]: > 50 µM
> 99	1.15 ± 0.025	> 99	O=C(OCC(O)CO)c1ccccc1Nc1ccnc2cc(Cl)ccc12 (stereo not drawn) [Compound 3, glafenine]	neither AQ nor 1, 3, 4, 5, or 6 antagonized	> 99	IC50 at 48 h [2, 9]: > 50 µM
> 40	1.42 ± 0.038	> 40	COc1ccc(Nc2ccnc3cc(Cl)ccc23)cc1 [Compound 4, 7-chloro-N-(4-methoxyphenyl)quinolin-4-amine]	neither AQ nor 1, 3, 4, 5, or 6 antagonized	> 99	IC50 at 48 h [2]: > 50 µM
> 40	0.937 ± 0.084	> 40	O=C(O)c1ccccc1Nc1ccnc2cc(Cl)ccc12 [Compound 5, 2-((7-chloroquinolin-4-yl)amino)benzoic acid]	neither AQ nor 1, 3, 4, 5, or 6 antagonized	> 99	–
> 40	23.5 ± 0.161	> 99	O=C(c1ccccc1Nc1ccnc2cc(Cl)ccc12)N1CCOCC1 [Compound 6, (2-((7-chloroquinolin-4-yl)amino)phenyl)(morpholino) methanone]	neither AQ nor 1, 3, 4, 5, or 6 antagonized	> 99	–
